# Reference: patent US4288441A, “Nicotinoyl pantetheine derivatives” (priority 1980, dated 1981)
# Read-outs that look alike come from different tables or passages of the source.
# Legend:
# serum free fatty acid = test: Serum levels of free fatty acid in rats after oral administration (Table I); type: in vivo; details: for Serum level of free fatty acid (FFA): oral, n=6, nicotinic acid 20 mg/kg, S-nicotinate 62.2 mg/kg (equimolar)
# Description: (§1) At the time specified in Table I, the rats were killed by pentobarbital (30 mg/kg, i.p.) anesthesia and blood was withdrawn by the carotid. The serum separated from the blood samples was assayed for free fatty acid (according to a variation of the Elphic method) and triglyceride (according to the enzyme method).
# serum triglyceride = test: Serum levels of triglyceride in rats after oral administration (Table I); type: in vivo; details: for Serum level of triglyceride (TG): oral, n=6, nicotinic acid 20 mg/kg, S-nicotinate 62.2 mg/kg (equimolar)
# Description: as §1
# serum cholesterol = test: Serum cholesterol in alcoholic fatty liver rats (Table III); type: in vivo, male Sprague-Dawly rats; details: 0.1 mmole/kg/day for five days, n=6
# Description: (§2) The effects of S-nicotinate were confirmed by an experiment in which alcoholic fatty liver rats were used according to the method described by A. Hosein et al., Biochemical Pharmacology, 24, page 1859, 1975.
# (§3) In this experiment, male Sprague-Dawly rats, age 6 weeks, were treated as follows. The rats received 10 ml of 40% ethanol solution per kg of body weight for 3 days (at 10:00 AM on the day of sacrifice and at 4:00 PM on the other days) by gastric intubation. S-nicotinate was suspended in 0.5 (v/v)% Tween 80 aqueous solution and administered for five days (at 9:00 AM) including the day of sacrifice. After sacrificing the rats (at 1:00 PM), the total cholesterol was measured according to the Bennie Zak method (American Journal of Clinical Pathology, 27, page 583, 1957) and free fatty acid was measured by the method described by K. Itaya et al., Journal of Lipid Research, 6, page 16, 1965.
# serum free fatty acids = test: Serum free fatty acids in alcoholic fatty liver rats (Table III); type: in vivo, male Sprague-Dawly rats; details: 0.1 mmole/kg/day for five days, n=6
# Description: as §2, §3
# [1] = Acute toxicity in mice (Table IV); details: mouse, in vivo
# Description: The acute toxicity test was conducted as follows. STD ddY strain mice, weight male 17.2-20.5 g, female 17.5-19.7 g, were used. The mice were fed on forage and water freely and kept at constant environmental conditions (temperature 23±1° C., relative humidity 55±5%, and 12 hours light) before the test. Samples of S-nicotinate water solutions (0.3 ml/10 g of body weight) were administered to each group (n=10) of mice in order to achieve levels of 5 g/kg and 10 g/kg, respectively.
# [2] = rat, in vivo, po
# Description: (§4) On the other hand, upon oral administration of each compound, i.e., nicotinic acid and S-nicotinate to groups of rats, the plasma nicotinic acid levels in the rats were studied. […] The other experimental conditions were the same as those described above.
# in vivo = details: rat, po, 62.2 mg/kg
# Description: as §4
# [3] = Plasma nicotinic acid levels in rats after oral administration (Table II)
# Description: as §4
# [4] = cited from earlier work
# [5] = 30 min, * = significant difference from control
# [6] = rats, compared with nicotinic acid
compound,measurement,setting,value
"CC(C)(CO)C(O)C(=O)NCCC(=O)NCCSC(=O)c1cccnc1 (stereo not shown) [S-nicotinate, 2,4-dihydroxy-N-[2-((2-mercaptoethyl)carbamoyl)ethyl]-3,3-dimethylbutyramide S-nicotinate]",Serum level of free fatty acid (FFA),serum free fatty acid; [5],0.13±0.01 mEq/1
same,Serum level of free fatty acid (FFA),serum free fatty acid; 60 min,0.13±0.01 mEq/1
same,Serum level of free fatty acid (FFA),serum free fatty acid; 90 min,0.15±0.03 mEq/l
same,Serum level of free fatty acid (FFA),serum free fatty acid; 120 min,0.20±0.04 mEq/l
same,Serum level of free fatty acid (FFA),serum free fatty acid; 360 min,0.46±0.05 mEq/l
same,"Effect on serum level of free fatty acid, in words",serum free fatty acid; [6],decreases serum levels of free fatty acid and triglyceride in rats as well as nicotinic acid does
same,Serum level of triglyceride (TG),serum triglyceride; [5],43.7 ± 5.7 mg/dL
same,Serum level of triglyceride (TG),serum triglyceride; 60 min,22.2 ± 1.1 mg/dL
same,Serum level of triglyceride (TG),serum triglyceride; 90 min,25.5 ± 3.3 mg/dL
same,Serum level of triglyceride (TG),serum triglyceride; 120 min,29.2 ± 1.6 mg/dL
same,Serum level of triglyceride (TG),serum triglyceride; 360 min,33.5 ± 8.0 mg/dL
same,"Effect on serum level of triglyceride, in words",serum triglyceride; [6],decreases serum levels of free fatty acid and triglyceride in rats as well as nicotinic acid does
same,Serum cholesterol,serum cholesterol,79.0 ± 4.23 mg/dL
same,Serum free fatty acids,serum free fatty acids,236±21.33 μEq/l
same,LD50,[1]; iv,1600 mg/kg
same,LD50,[1]; po,> 10000 mg/kg
same,"Plasma nicotinic acid at 120 minutes, in words",[2],essentially disappeared
same,concentration at 0.5 h,in vivo,5200 ± 300 ng/mL
same,concentration at 1 h,in vivo,3300 ± 300 ng/mL
same,concentration at 1.5 h,in vivo,700 ± 400 ng/mL
same,"Activity in maintaining a satisfactory level of free nicotinic acid in the blood, in words","[3]; S-nicotinate itself vs nicotinic acid, inferred from experimental results",has the same activity as nicotinic acid itself
O=C(O)c1cccnc1 [nicotinic acid],Serum level of free fatty acid (FFA),serum free fatty acid; [5],0.19±0.09 mEq/1
same,Serum level of free fatty acid (FFA),serum free fatty acid; 60 min,0.12±0.01 mEq/1
same,Serum level of free fatty acid (FFA),serum free fatty acid; 90 min,0.13±0.02 mEq/l
same,Serum level of free fatty acid (FFA),serum free fatty acid; 120 min,0.23±0.07 mEq/l
same,Serum level of free fatty acid (FFA),serum free fatty acid; 360 min,0.49±0.04 mEq/l
same,Serum level of triglyceride (TG),serum triglyceride; [5],35.0 ± 2.3 mg/dL
same,Serum level of triglyceride (TG),serum triglyceride; 60 min,18.0 ± 0.7 mg/dL
same,Serum level of triglyceride (TG),serum triglyceride; 90 min,21.2 ± 2.5 mg/dL
same,Serum level of triglyceride (TG),serum triglyceride; 120 min,26.2 ± 1.1 mg/dL
same,Serum level of triglyceride (TG),serum triglyceride; 360 min,32.5 ± 3.1 mg/dL
same,Effect on blood lipids,"[4]; cholesterol, triglycerides, phospholipids and free fatty acids in blood, well known","reduces the levels of lipids such as cholesterol, triglycerides, phospholipids and free fatty acids in blood"
same,Side-effects at higher doses,"[4]; clinical treatment, higher doses","flushing of the face, itching and gastrointestinal impediments"
same,"Nicotinic acid level in the blood, in words","[4]; clinical treatment, normal dosage levels",rapidly decreases
same,Vasodilator effect,[4]; well known,vasodilator effect
same,"Plasma nicotinic acid level, in words","[3]; 10 mg/kg nicotinic acid, at 60 minutes",almost a trace amount or was not detectable
same,Plasma nicotinic acid level,"[3]; 360 min, oral, nicotinic acid 20 mg/kg, S-nicotinate 62.2 mg/kg",0 ± 0 µg/mL
same,Cmax at 0.5 h,"[3]; rat, plasma, po, 10 mg/kg",8300 ng/mL
same,Tmax,"[3]; rat, plasma, po, 10 mg/kg",30 min
same,concentration at 0.5 h,"[3]; rat, plasma, po, 20 mg/kg",42800 ± 1200 ng/mL
same,concentration at 1 h,"[3]; rat, plasma, po, 20 mg/kg",22200 ± 1600 ng/mL
same,concentration at 1.5 h,"[3]; rat, plasma, po, 20 mg/kg",6700 ± 1600 ng/mL
same,concentration at 2 h,"[3]; rat, plasma, po, 20 mg/kg",400 ± 300 ng/mL
same,"Plasma nicotinic acid at 120 minutes, in words","[3]; rats, 120 min after oral administration",essentially disappeared
same,Rebound effect in the plasma nicotinic acid level,"[3]; rats, compared with S-nicotinate",far larger rebound effect
pantothenolnicotinate,Effect on blood cholesterol level,[4]; Japanese published patent specification No. 40-18109,able to decrease the blood cholesterol level
